What all share (test): KD evaluation by probe fluorescence (Tecan SPARK)
What all share (assay type): binding

Experiment [1] concerns the target T1, ALDH1A2 (Homo sapiens, UniProt O94788).
T1 construct: His-tag; made in house; host or cells: bacterial cells
T1 sequence (O94788 1-518): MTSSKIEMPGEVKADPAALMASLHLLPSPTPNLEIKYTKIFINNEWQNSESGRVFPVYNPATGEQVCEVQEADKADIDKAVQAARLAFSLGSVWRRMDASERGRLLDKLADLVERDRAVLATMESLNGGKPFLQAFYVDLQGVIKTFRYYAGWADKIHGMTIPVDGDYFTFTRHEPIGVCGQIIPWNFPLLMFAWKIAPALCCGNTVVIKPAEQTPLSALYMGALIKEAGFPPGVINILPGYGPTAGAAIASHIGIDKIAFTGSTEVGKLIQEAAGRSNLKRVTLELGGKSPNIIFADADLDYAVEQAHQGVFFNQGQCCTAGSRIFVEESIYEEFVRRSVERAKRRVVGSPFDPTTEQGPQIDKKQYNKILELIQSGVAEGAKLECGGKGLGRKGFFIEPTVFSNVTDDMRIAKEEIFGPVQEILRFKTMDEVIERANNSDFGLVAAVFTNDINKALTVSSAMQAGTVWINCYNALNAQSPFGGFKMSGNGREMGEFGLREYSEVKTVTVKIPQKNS
Conditions: probe fixed at 10 μM, isoenzyme 100 μM to 1 μM. How it is done:
(§1) A common protocol to express and purify all three members of the ALDHIA subfamily has been optimized. Briefly, induced cells, collected by centrifugation, were re-suspended in an appropriate volume of lysis buffer (50 mM Na2HPO4, 300 mM NaCl, 1 mM β-mercaptoethanol, 20 mM imidazole, pH 7.5) added of benzonase nuclease (250 U/μL) and Protease inhibitor cocktail from SIGMA. After ultracentrifugation, the clarified sample was purified by a His-tag affinity chromatography followed by size-exclusion chromatography, using an AKTA FPLC system, at 4° C. To evaluate the purity and homogeneity of the protein, after each purification step, eluted d fractions were analyzed by SDS-PAGE and the protein quantification was always determined by Bradford protein assay.
(§2) KD evaluation: on a Tecan—SPARK, probe 14 and 13 were tested at a fixed concentration of 10 μM. All the isoenzymes were tested in wide range of concentrations (from 100 μM to 1 μM). The analysis was settled with a BW of 20, monitoring the Em wavelength in range comprised between 520 and 535 nm for probe 14 and 520 and 580 nm for probe 13. The Ex was fixed at 420 nm for probe 14 and 440 nm for probe 13. The test was performed in quadruplicate with all the three isoenzymes. The recipe of the buffer reaction was the same as described before.

For experiment [2], the target named is T2, ALDH1A1 (Homo sapiens, UniProt P00352).
T2 construct: His-tag; made in house; host or cells: bacterial cells
T2 sequence (P00352 1-501): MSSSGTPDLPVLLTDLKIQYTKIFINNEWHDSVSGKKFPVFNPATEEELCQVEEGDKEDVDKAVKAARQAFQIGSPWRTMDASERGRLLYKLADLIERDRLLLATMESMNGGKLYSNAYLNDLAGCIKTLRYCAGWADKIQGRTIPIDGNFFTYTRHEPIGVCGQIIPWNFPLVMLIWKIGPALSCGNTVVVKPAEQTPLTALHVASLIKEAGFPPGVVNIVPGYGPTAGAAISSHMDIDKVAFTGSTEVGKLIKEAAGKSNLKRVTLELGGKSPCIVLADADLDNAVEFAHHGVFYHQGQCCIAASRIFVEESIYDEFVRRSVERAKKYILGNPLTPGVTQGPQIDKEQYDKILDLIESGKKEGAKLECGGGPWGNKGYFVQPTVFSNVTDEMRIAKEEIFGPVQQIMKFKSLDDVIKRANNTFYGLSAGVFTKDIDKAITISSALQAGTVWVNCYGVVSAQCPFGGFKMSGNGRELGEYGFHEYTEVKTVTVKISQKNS
Conditions: probe fixed at 10 μM, isoenzyme 100 μM to 1 μM. The protocol: as §1, §2

Experiment [3] has as its target T3, ALDH1A3 (Homo sapiens, UniProt P47895).
T3 construct: His-tag; made in house; host or cells: bacterial cells
T3 sequence (P47895 1-512): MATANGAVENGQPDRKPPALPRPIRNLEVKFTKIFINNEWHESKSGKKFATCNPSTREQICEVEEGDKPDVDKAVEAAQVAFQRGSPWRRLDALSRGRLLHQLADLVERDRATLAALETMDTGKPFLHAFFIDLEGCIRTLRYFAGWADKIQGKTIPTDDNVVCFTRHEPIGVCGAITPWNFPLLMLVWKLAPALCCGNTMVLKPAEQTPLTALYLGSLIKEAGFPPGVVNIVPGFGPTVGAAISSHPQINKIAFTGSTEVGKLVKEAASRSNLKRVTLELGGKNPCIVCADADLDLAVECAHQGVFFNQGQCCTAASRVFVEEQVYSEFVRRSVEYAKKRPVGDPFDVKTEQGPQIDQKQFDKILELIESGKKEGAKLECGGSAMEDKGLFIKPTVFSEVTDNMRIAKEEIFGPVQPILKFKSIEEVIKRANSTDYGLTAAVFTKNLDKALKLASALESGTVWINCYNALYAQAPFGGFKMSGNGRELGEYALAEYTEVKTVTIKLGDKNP
As to conditions: ALDH1A3; probe fixed at 10 μM, isoenzyme 100 μM to 1 μM; read-out: KD. How it is done: as §1, §2

As to `COc1cc(/C=C/C(=O)/C=C(O)/C=C/c2ccc(OCc3cn(CCOc4ccc(C=O)cc4)nn3)c(OC)c2)ccc1O` [Compound 13], the figures for the Kd in experiment [1], in experiment [2] and in experiment [3] were 36.9 µM, 31.1 µM and 38.2 µM, respectively.

Consider `CCOC(=O)Cn1cc(COc2ccc(/C=C/C(O)=C/C(=O)/C=C/c3ccc(O)c(OC)c3)cc2OC)nn1` [Compound 14], for which the dissociation constant Kd was 125 µM in experiment [1], 42.4 µM in experiment [2] and 84.3 µM in experiment [3].

In general, Kd refers to the concentration at which binding is half-saturated.

The values are drawn from patent publication US20250281649A1, “PROBE DIRECTED TO ENZYME ALDH1A3 AND USE THEREOF IN THE DIAGNOSIS OF GLIOBLASTOMA” (Universita' Degli Studi Del Piemonte Orientale "A. Avogadro", priority 2021, published 2025).
